Assay results from ChEMBL document CHEMBL4808200, “Identification of a Series of N-Methylpyridine-2-carboxamides as Potent and Selective Inhibitors of the Second Bromodomain (BD2) of the Bromo and Extra Terminal Domain (BET) Proteins” (J Med Chem, 2021).
≈ marks a conversion by molar mass, not a printed value.

Tests used:
[1] = physchem; details: buffer, pH 7.4
[2] = Permeability of the compound at pH 7.4 by artificial membrane permeability assay; type: ADME; details: PAMPA, read-out: permeability
[3] = Solubility of the compound in pH 6.5 FaSSIF at […] measured after 16 hrs by HPLC analysis; type: physicochemical
[4] = Half life in Wistar Han rat at 1 mg/kg, iv administered as 1 hr infusion or 3 mg/kg, po administered via gavage by LC-MS/MS analysis; type: ADME, organism-based; details: in vivo
[5] = Intrinsic clearance in human cryopreserved pooled hepatocytes at 0.5 uM measured up to 120 mins by LC-MS/MS analysis; type: ADME, tissue-based, Hepatocyte; details: 2 h
[6] = Clearance in Wistar Han rat at 1 mg/kg, iv administered as 1 hr infusion or 3 mg/kg, po administered via gavage by LC-MS/MS analysis; type: ADME, organism-based; details: in vivo
[7] = Volume of distribution at steady state in Beagle dog at 0.5 mg/kg, iv administered as 1 hr infusion on day 1 and day 7 to achieve a target dose of 1 mg/kg by LC-MS/MS analysis; type: ADME, organism-based, Canis lupus familiaris; details: in vivo, dose 0.5-1 mg/kg, time 7 day, read-out: Vdss
[8] = Unbound clearance in Wistar Han rat at 1 mg/kg, iv administered as 1 hr infusion or 3 mg/kg, po administered via gavage by LC-MS/MS analysis; type: ADME, organism-based; details: in vivo
[9] = Clearance in Beagle dog at 0.5 mg/kg, iv administered as 1 hr infusion on day 1 and day 7 to achieve a target dose of 1 mg/kg by LC-MS/MS analysis; type: ADME, organism-based, Canis lupus familiaris; details: in vivo, dose 0.5-1 mg/kg, time 7 day
[10] = Unbound clearance in Beagle dog at 0.5 mg/kg, iv administered as 1 hr infusion on day 1 and day 7 to achieve a target dose of 1 mg/kg by LC-MS/MS analysis; type: ADME, organism-based, Canis lupus familiaris; details: in vivo, 168 h, dose 0.5-1 mg/kg, time 7 day
[11] = Intrinsic clearance in Wistar Han rat cryopreserved pooled hepatocytes at 0.5 uM measured up to 60 mins by LC-MS/MS analysis; type: ADME, tissue-based, Hepatocyte; details: 1 h
[12] = Intrinsic clearance in Beagle dog cryopreserved pooled hepatocytes at 0.5 uM measured up to 120 mins by LC-MS/MS analysis; type: ADME, tissue-based, Canis lupus familiaris, Hepatocyte; details: 2 h
[13] = Half life in Beagle dog at 0.5 mg/kg, iv administered as 1 hr infusion on day 1 and day 7 to achieve a target dose of 1 mg/kg by LC-MS/MS analysis; type: ADME, organism-based, Canis lupus familiaris; details: in vivo, dose 0.5-1 mg/kg, time 7 day
[14] = Volume of distribution at steady state in Wistar Han rat at 1 mg/kg, iv administered as 1 hr infusion or 3 mg/kg, po administered via gavage by LC-MS/MS analysis; type: ADME, organism-based; details: in vivo, read-out: Vdss
[15] = Oral bioavailability in Beagle dog; type: ADME, organism-based, Canis lupus familiaris; details: in vivo
[16] = Oral bioavailability in Wistar Han rat at 3 mg/kg administered via gavage by LC-MS/MS analysis; type: ADME, organism-based; details: in vivo

Question: Which chromatographic logD [1] does the source give for `CC(=O)Nc1c(F)cc(C(=O)N[C@H]2CC[C@H](O)CC2)cc1O[C@@H](C)c1ccccc1` [GSK046] here?
Answer: 2.8

Question: Which results are given for `CNC(=O)c1cc(C(=O)N[C@H]2[C@@H]3C[C@H](O)C[C@@H]32)cc(Cc2ccccc2)n1`?
Answer: Papp [2]: 15 ×10⁻⁶ cm/s; solubility at 16 h [3]: 43 µg/mL (≈ 118 µM); chromatographic logD [1]: 3.5

Question: Which results are given for `CCNC(=O)c1cc(Cc2ccccc2)nc(C(=O)NC)c1`?
Answer: solubility at 16 h [3]: 310 µg/mL (≈ 1040 µM); chromatographic logD [1]: 3.7

Question: What does the source list for `CNC(=O)c1cc(C(=O)NC(C)C)cc(Cc2ccccc2)n1`?
Answer: Papp [2]: 57 ×10⁻⁶ cm/s; solubility at 16 h [3]: 101 µg/mL (≈ 324 µM)

Question: Which results are given for `CNC(=O)c1cc(C(=O)N[C@H]2[C@@H]3COC[C@@H]32)cc(C(OC)c2ccccc2)n1` (some centres undefined)?
Answer: half-life [4]: 1.5 h; CLH [5]: < 0.45 mL/min/g; Papp [2]: 14.5 ×10⁻⁶ cm/s; clearance [6]: 52 mL/min/kg; Vd [7]: 0.9 L/kg; CL free [8]: 142 mL/min/kg; clearance [9]: 9.4 mL/min/kg; CL free [10]: 23 mL/min/kg; CLH [11]: 1.27 mL/min/g; CLH [12]: < 0.65 mL/min/g; solubility at 16 h [3]: 575 µg/mL (≈ 1510 µM); half-life [13]: 1.2 h; Vd [14]: 2.1 L/kg; bioavailability [15]: 65%; chromatographic logD [1]: 3.4; bioavailability [16]: 17%

Question: Which half-life [4] does the source give for `CNC(=O)c1cc(C(=O)N[C@H]2C[C@@H]2C)cc(Cc2cccc3[nH]ccc23)n1` here?
Answer: 1.2 h

Question: What about the CLH [5] of the same compound?
Answer: < 0.45 mL/min/g

Question: What about the Papp [2] of the same compound?
Answer: 18.3 ×10⁻⁶ cm/s

Question: And the clearance [6]?
Answer: 18 mL/min/kg

Question: What about the Vd [7] of the same compound?
Answer: 1.6 L/kg

Question: What about the CL free [8] of the same compound?
Answer: 69 mL/min/kg

Question: And the clearance [9]?
Answer: 13 mL/min/kg

Question: What about the CL free [10] of the same compound?
Answer: 88 mL/min/kg

Question: And the CLH [11]?
Answer: 1.06 mL/min/g

Question: What about the CLH [12] of the same compound?
Answer: < 0.65 mL/min/g

Question: And the solubility at 16 h [3]?
Answer: 127 µg/mL (≈ 350 µM)

Question: And the half-life [13]?
Answer: 2.2 h

Question: And the Vd [14]?
Answer: 1.2 L/kg

Question: And the bioavailability [15]?
Answer: 55%

Question: And the chromatographic logD [1]?
Answer: 3

Question: And the bioavailability [16]?
Answer: 48%

Question: What does the source list for `CNC(=O)c1cc(C(=O)NCCC[C@H]2OC[C@H](N)CO2)cc(Cc2ccccc2)n1`?
Answer: half-life [4]: 0.4 h; CLH [5]: < 0.45 mL/min/g; Papp [2]: 15 ×10⁻⁶ cm/s; clearance [6]: 31 mL/min/kg; Vd [7]: 2.4 L/kg; CL free [8]: 365 mL/min/kg; clearance [9]: 42 mL/min/kg; CL free [10]: 118 mL/min/kg; CLH [11]: 1.04 mL/min/g; CLH [12]: < 0.65 mL/min/g; half-life [13]: 0.9 h; Vd [14]: 0.7 L/kg; bioavailability [15]: 98%; chromatographic logD [1]: 2.8; bioavailability [16]: 28%

Question: For `CNC(=O)c1cc(C(=O)O)cc(Cc2ccccc2)n1`, which solubility at 16 h [3] is on record?
Answer: > 1000 µg/mL

Question: For `CNC(=O)c1cc(C(=O)N[C@H]2C[C@@H]2C)cc([C@@H](CO)c2ccccc2)n1`, which Papp [2] is on record?
Answer: 10 ×10⁻⁶ cm/s

Question: And the solubility at 16 h [3]?
Answer: > 1000 µg/mL

Question: What about the chromatographic logD [1] of the same compound?
Answer: 3.3

Question: Which Papp [2] does the source give for `CNC(=O)c1cc(C(=O)N[C@H]2CC[C@H](O)CC2)cc(Cc2ccccc2)n1` here?
Answer: 8.6 ×10⁻⁶ cm/s

Question: And the solubility at 16 h [3]?
Answer: 473 µg/mL (≈ 1290 µM)

Question: And the chromatographic logD [1]?
Answer: 3.1

Question: With `CNC(=O)c1cc(C(=O)N(C)C)cc(Cc2ccccc2)n1` as the compound, how does the Papp [2] read?
Answer: 33 ×10⁻⁶ cm/s

Question: And the chromatographic logD [1]?
Answer: 3.3

Question: For `CNC(=O)c1cc(C(=O)N[C@H]2C[C@@H]2C)cc(C(OC)c2ccccc2)n1` (some centres undefined), which Papp [2] is on record?
Answer: 56 ×10⁻⁶ cm/s

Question: And the chromatographic logD [1]?
Answer: 4.3

Question: For `CNC(=O)c1cc(C(N)=O)cc(Cc2ccccc2)n1`, which Papp [2] is on record?
Answer: 21 ×10⁻⁶ cm/s

Question: And the chromatographic logD [1]?
Answer: 2.7

Question: Which Papp [2] does the source give for `CNC(=O)c1cc(C(=O)N[C@H]2[C@@H]3COC[C@@H]32)cc(C(O)c2ccccc2)n1` (some centres undefined) here?
Answer: 2.4 ×10⁻⁶ cm/s

Question: And the solubility at 16 h [3]?
Answer: 473 µg/mL (≈ 1290 µM)

Question: And the chromatographic logD [1]?
Answer: 2.2

Question: Which Papp [2] does the source give for `CNC(=O)c1cc(C(=O)NC2CC2)cc([C@@H](C)c2ccccc2)n1` here?
Answer: 55.5 ×10⁻⁶ cm/s

Question: What about the solubility at 16 h [3] of the same compound?
Answer: 123 µg/mL (≈ 380 µM)

Question: And the chromatographic logD [1]?
Answer: 4.4

Question: For `CNC(=O)c1cc(C(=O)N[C@H]2C[C@@H]2C)cc([C@@H](O)c2ccccc2)n1`, which half-life [4] is on record?
Answer: 2 h

Question: What about the CLH [5] of the same compound?
Answer: 0.8 mL/min/g

Question: And the Papp [2]?
Answer: 18.3 ×10⁻⁶ cm/s

Question: What about the clearance [6] of the same compound?
Answer: 29 mL/min/kg

Question: What about the Vd [7] of the same compound?
Answer: 2.1 L/kg

Question: What about the CL free [8] of the same compound?
Answer: 96 mL/min/kg

Question: And the clearance [9]?
Answer: 32 mL/min/kg

Question: And the CL free [10]?
Answer: 102 mL/min/kg

Question: What about the CLH [11] of the same compound?
Answer: < 0.8 mL/min/g

Question: And the CLH [12]?
Answer: 0.81 mL/min/g

Question: What about the solubility at 16 h [3] of the same compound?
Answer: > 1000 µg/mL

Question: And the half-life [13]?
Answer: 0.6 h

Question: And the Vd [14]?
Answer: 2.2 L/kg

Question: And the bioavailability [15]?
Answer: 35%

Question: And the chromatographic logD [1]?
Answer: 3.2

Question: What about the bioavailability [16] of the same compound?
Answer: 34%

Question: With `CNC(=O)c1cc(Cc2ccccc2)nc(C(=O)NC)c1` as the compound, how does the Papp [2] read?
Answer: 20 ×10⁻⁶ cm/s

Question: What about the solubility at 16 h [3] of the same compound?
Answer: > 1000 µg/mL

Question: What about the chromatographic logD [1] of the same compound?
Answer: 3.1

Question: What does the source list for `CNC(=O)c1cc(C(=O)NC2CC2)cc([C@H](C)c2ccccc2)n1`?
Answer: Papp [2]: 49 ×10⁻⁶ cm/s; solubility at 16 h [3]: 182 µg/mL (≈ 563 µM); chromatographic logD [1]: 4.3

Question: Which Papp [2] does the source give for `CNC(=O)c1cc(C(=O)N[C@H]2[C@@H]3C[C@H](O)C[C@@H]32)cc([C@@H](C)c2ccccc2)n1` here?
Answer: 28 ×10⁻⁶ cm/s

Question: What about the solubility at 16 h [3] of the same compound?
Answer: 572 µg/mL (≈ 1510 µM)

Question: What about the chromatographic logD [1] of the same compound?
Answer: 4.1
